Structures are written as SMILES.

Holding throughout (type): physicochemical
The nature of series [1]: Humidity and heat fastness of recorded image (percentage of colorant remaining). As to conditions: 80° C., humidity of 70%, 7 days, percentage of colorant remaining at reflection densities 1, 1.5 and 2.0. As for the experimental part:
(§1) Images were respectively recorded on a photo glossy paper (Photo glossy paper EX, ink jet paper manufactured by Fuji Photo Film Co., Ltd.) by an ink jet printer (“PM-770C”, manufactured by Seiko Epson Co., Ltd.) using the obtained ink liquids 1 to 9. Hue, light fastness, humidity and heat fastness and ozone gas resistance of the obtained images were evaluated.
Further, regarding humidity and heat fastness, image densities before and after storage at a temperature of 80° C. and a humidity of 70% for 7 days were measured in the same manner, and evaluated in terms of the percentage of colorant remaining.
(§2) Reflection density was measured at three points which were 1, 1.5 and 2.0, and the case in which the percentage of colorant remaining were 90% or more at any of the three densities was evaluated as A, the case in which the percentage of colorant remaining was less than 90% at one or two points was evaluated as B, and the case in which the percentage of colorant remaining was less than 90% at all densities was evaluated as C.

A short description of series [2]: Ozone gas resistance of recorded image (percentage of colorant remaining). As to conditions: ozone gas 0.5±0.1 ppm, 7 days, room temperature, dark, percentage of colorant remaining at reflection densities 1, 1.5 and 2.0.
Experimental: Regarding ozone gas resistance, the photo glossy papers on which the above-described images were formed were stood alone for 7 days in a box having an ozone gas concentration of 0.5±0.1 ppm in which were set at room temperature and in a dark room, and image densities before and after storage under ozone gas atmosphere were measured by using a reflection densitometer (X-Rite310TR), and evaluated in terms of the percentage of colorant remaining. The fore-mentioned reflection density was measured at three points which were 1, 1.5 and 2.0. The ozone gas concentration in the box was measured using an ozone gas monitor manufactured by APPLICS (Model OZG-EM-01). The case in which the percentage of colorant remaining were 70% or more at any of the densities was evaluated as A, the case in which the percentage of colorant remaining was less than 70% at one or two points was evaluated as B, and the case in which the percentage of colorant remaining was less than 70% at all densities was evaluated as C. It was evaluated at three stages.
Series [3] in a line: Light fastness of recorded image (xenon light, percentage of colorant remaining). As to conditions: xenon light (85000 lux) for 7 days, percentage of colorant remaining at reflection densities 1, 1.5 and 2.0. As for the experimental part:
as §1
Regarding light fastness, an image-receiving material on which images were recorded was irradiated with xenon light (85000 lux) for 7 days using a weather meter (Atlas C. 165), the image densities before and after xenon irradiation were measured by using a reflection densitometer (X-Rite310TR), and the light fastness was evaluated in terms of the percentage of colorant remaining.
as §2

`Cc1ccc2[nH]c3cc4c(=O)c5cc(C)ccc5[nH]c4cc3c(=O)c2c1` [C. I. Pigment Red 122]: the “Humidity and heat fastness” value in series [1] was “A (the percentage of colorant remaining were 90% or more at any of the three densities)”. Further, the ozone resistance entry in series [2] is “A (the percentage of colorant remaining were 70% or more at any of the densities)”. Besides, the Light fastness result in series [3] was “A (the percentage of colorant remaining were 90% or more at any of the three densities)”.

These data come from patent publication US20020046680A1, “Methine compound, a recording liquid for ink jet, and an ink jet recording method” (priority 2000, published 2002).
